These results are taken from PubChem BioAssay (NCI).

Test systems include MCF7 breast; SK-MEL-2 melanoma; IGROV1 ovarian; NCI-H226 lung; A549 NSCLC; HCC-2998 colon; MDA-N; NCI-H460 lung; SNB-75 CNS; KM12 colon.
Common to all, as to assay: NCI anticancer screen, dose series, 48 h

Structures are written as SMILES.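 How tested: cells in 96-well plates exposed to compound for 48 hours at five concentrations. TGI: concentration producing complete growth inhibition.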 Where only a bound is given, the exact number is not on record here.

For `COc1ccc2nc3cc(Cl)ccc3c(NCCCCCC(=O)NC(COc3cnc4c(ccc5cccnc54)c3)COc3cnc4c(ccc5cccnc54)c3)c2c1`, the TGI with MCF7 breast was 17.7 µM; in the assay with SK-MEL-2 melanoma, 41.5 µM; in the assay with IGROV1 ovarian, greater than 100 µM; in the assay with NCI-H226 lung, 21.8 µM; in the assay with A549 NSCLC it was greater than 100 µM; in the assay on HCC-2998 colon, 27.9 µM. Further, the TGI with MDA-N was greater than 100 µM; in the assay with NCI-H460 lung, 23.1 µM; in the assay with SNB-75 CNS it was 4.78 µM; in the assay on KM12 colon, greater than 100 µM.

Consider `Cn1ccnc1Sc1ccc(/C=N/NC(=O)c2ccccc2O)cc1[N+](=O)[O-]`, for which the TGI with MCF7 breast, in the assay with SK-MEL-2 melanoma, in the assay with IGROV1 ovarian, in the assay with NCI-H226 lung, in the assay with A549 NSCLC and in the assay with HCC-2998 colon was greater than 100 µM in each case. Also, the TGI in the assay with MDA-N, in the assay with NCI-H460 lung, with SNB-75 CNS and in the assay with KM12 colon was greater than 100 µM each time.

In the case of `COc1ccc2c(c1)OC(c1cccnc1)C(c1ccccc1)C2=O` (stereo not given), the TGI in the assay with MCF7 breast, in the assay on SK-MEL-2 melanoma, in the assay on IGROV1 ovarian, in the assay with NCI-H226 lung, in the assay with A549 NSCLC and in the assay with HCC-2998 colon was greater than 100 µM each time. In addition, the TGI in the assay with MDA-N, in the assay on NCI-H460 lung, in the assay on SNB-75 CNS and in the assay on KM12 colon was greater than 100 µM throughout.

`COc1ccc(CCn2cnc3ccccc32)cc1`: the TGI in the assay on MCF7 breast, in the assay with SK-MEL-2 melanoma, in the assay on IGROV1 ovarian, with NCI-H226 lung, in the assay with A549 NSCLC and with HCC-2998 colon was greater than 100 µM throughout. Besides, the TGI in the assay with MDA-N, in the assay with NCI-H460 lung, in the assay on SNB-75 CNS and in the assay with KM12 colon was greater than 100 µM each time.
